Measurements: paper PMC7490411 (Signal Transduction and Targeted Therapy, 2020)

What was measured:
YANK1 = test: KINOMEscan; assay type: binding; settings: 1000 nM
PRKCH = test: KINOMEscan; assay type: binding; settings: 1000 nM
SRPK3 = test: KINOMEscan; assay type: binding; settings: 1000 nM
SGK3 = test: KINOMEscan; assay type: binding; settings: 1000 nM
PIK3CA(I800L) = test: KINOMEscan; assay type: binding; settings: 1000 nM
EGFR = biological target: T1, EGFR (Homo sapiens, UniProt P00533); test: KINOMEscan; assay type: binding; settings: 1000 nM
T1 construct: purchased Invitrogen (Carlsbad, CA, USA)
T1 sequence (P00533 25-1210): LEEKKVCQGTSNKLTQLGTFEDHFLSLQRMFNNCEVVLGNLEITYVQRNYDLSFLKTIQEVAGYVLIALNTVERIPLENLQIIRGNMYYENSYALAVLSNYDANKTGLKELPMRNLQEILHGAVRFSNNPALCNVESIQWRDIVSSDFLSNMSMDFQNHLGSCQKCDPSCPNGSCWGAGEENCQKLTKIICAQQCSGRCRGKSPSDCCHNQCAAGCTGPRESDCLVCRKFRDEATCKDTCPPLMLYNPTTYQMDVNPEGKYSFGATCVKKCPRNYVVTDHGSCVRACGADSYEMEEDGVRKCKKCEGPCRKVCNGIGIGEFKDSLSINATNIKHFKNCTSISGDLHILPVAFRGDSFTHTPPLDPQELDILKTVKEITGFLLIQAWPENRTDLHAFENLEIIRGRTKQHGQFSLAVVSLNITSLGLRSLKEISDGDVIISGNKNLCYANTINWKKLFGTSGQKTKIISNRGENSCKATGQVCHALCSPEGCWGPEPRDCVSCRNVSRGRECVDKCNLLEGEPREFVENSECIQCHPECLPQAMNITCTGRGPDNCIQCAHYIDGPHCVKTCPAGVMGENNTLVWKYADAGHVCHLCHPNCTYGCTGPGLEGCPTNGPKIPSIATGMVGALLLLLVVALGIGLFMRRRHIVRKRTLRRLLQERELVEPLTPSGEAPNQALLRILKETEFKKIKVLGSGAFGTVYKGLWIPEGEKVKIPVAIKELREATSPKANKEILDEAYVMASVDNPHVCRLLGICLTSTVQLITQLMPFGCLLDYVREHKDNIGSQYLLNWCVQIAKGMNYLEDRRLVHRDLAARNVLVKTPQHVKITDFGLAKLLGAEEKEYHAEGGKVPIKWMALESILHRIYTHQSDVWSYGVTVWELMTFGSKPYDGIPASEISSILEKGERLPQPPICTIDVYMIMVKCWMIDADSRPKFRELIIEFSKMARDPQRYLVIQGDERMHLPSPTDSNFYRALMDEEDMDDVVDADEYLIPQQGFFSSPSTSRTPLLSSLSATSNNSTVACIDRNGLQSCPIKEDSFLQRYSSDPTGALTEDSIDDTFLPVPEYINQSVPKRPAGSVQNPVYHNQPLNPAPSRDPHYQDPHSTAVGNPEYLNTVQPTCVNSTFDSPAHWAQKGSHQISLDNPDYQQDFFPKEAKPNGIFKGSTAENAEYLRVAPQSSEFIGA

CDKL2 = test: KINOMEscan; assay type: binding; settings: 1000 nM
PAK6 = test: KINOMEscan; assay type: binding; settings: 1000 nM
FGFR3 = test: KINOMEscan; assay type: binding; settings: 1000 nM
SNARK = test: KINOMEscan; assay type: binding; settings: 1000 nM
LTK = test: KINOMEscan; assay type: binding; settings: 1000 nM
BRAF(V600E) = test: KINOMEscan; assay type: binding; settings: 1000 nM
FGFR1 = test: KINOMEscan; assay type: binding; settings: 1000 nM
SGK2 = test: KINOMEscan; assay type: binding; settings: 1000 nM
DCAMKL3 = test: KINOMEscan; assay type: binding; settings: 1000 nM
[1] = tested on: REC-1 cell (MCL)-inoculated xenograft; test: REC-1 cell subcutaneous xenograft tumor model; assay type: in vivo; settings: for TGI: REC-1 xenograft, 14 days
[2] = tested on: RSK3(Kin.Dom.2-C-terminal); test: KINOMEscan; assay type: binding; settings: 1000 nM
[3] = tested on: REC-1 cells bone marrow engraftment; test: REC-1 cells bone marrow engrafted mouse model; assay type: in vivo; settings: REC-1 bone marrow engraftment
Description: Five-week old female NOD-SCID mice were purchased from the Beijing Vital River Laboratory Animal Technology Co., Ltd (Beijing, China). All animals were housed in a specific pathogen free facility and used according to the animal care regulations of Hefei Institutes of Physical Science, Chinese Academy of Sciences. NOD-SCID mice were induced by intraperitoneal injection of cyclophosphamide (CTX) 50 mg/kg daily for two days. 8 million REC-1 cells in 0.3 mL RPMI1640 medium were injected by intravenous after 24 h. […] Mice were monitored daily and were euthanized when moribund or at early signs of hind limb paralysis.

[4] = tested on: RSK2(Kin.Dom.2-C-terminal); test: KINOMEscan; assay type: binding; settings: 1000 nM
CSNK1G1 = test: KINOMEscan; assay type: binding; settings: 1000 nM
DYRK1A = test: KINOMEscan; assay type: binding; settings: 1000 nM
CDK8 = test: KINOMEscan; assay type: binding; settings: 1000 nM
EGFR(L747-T751del,Sins) = test: KINOMEscan; assay type: binding; settings: 1000 nM
CAMKK2 = test: KINOMEscan; assay type: binding; settings: 1000 nM
[5] = tested on: RSK1(Kin.Dom.1-N-terminal); test: KINOMEscan; assay type: binding; settings: 1000 nM
CDKL3 = test: KINOMEscan; assay type: binding; settings: 1000 nM
EGFR(S752-I759del) = test: KINOMEscan; assay type: binding; settings: 1000 nM
ALK = test: KINOMEscan; assay type: binding; settings: 1000 nM
CAMK2A = test: KINOMEscan; assay type: binding; settings: 1000 nM
MST4 = test: KINOMEscan; assay type: binding; settings: 1000 nM
TNK1 = test: KINOMEscan; assay type: binding; settings: 1000 nM
PRKD3 = test: KINOMEscan; assay type: binding; settings: 1000 nM
RIOK1 = test: KINOMEscan; assay type: binding; settings: 1000 nM
CDK3 = test: KINOMEscan; assay type: binding; settings: 1000 nM
ACVR1 = test: KINOMEscan; assay type: binding; settings: 1000 nM
HUNK = test: KINOMEscan; assay type: binding; settings: 1000 nM
CSNK1A1L = test: KINOMEscan; assay type: binding; settings: 1000 nM
WNK2 = test: KINOMEscan; assay type: binding; settings: 1000 nM
NEK3 = test: KINOMEscan; assay type: binding; settings: 1000 nM
STK36 = test: KINOMEscan; assay type: binding; settings: 1000 nM
TRPM6 = test: KINOMEscan; assay type: binding; settings: 1000 nM
MRCKB = test: KINOMEscan; assay type: binding; settings: 1000 nM
TNNI3K = test: KINOMEscan; assay type: binding; settings: 1000 nM
PKN1 = test: KINOMEscan; assay type: binding; settings: 1000 nM
DMPK = test: KINOMEscan; assay type: binding; settings: 1000 nM
HIPK1 = test: KINOMEscan; assay type: binding; settings: 1000 nM
CSNK2A2 = test: KINOMEscan; assay type: binding; settings: 1000 nM
CTK = test: KINOMEscan; assay type: binding; settings: 1000 nM
[6] = tested on: ABL1(F317I)-nonphosphorylated; test: KINOMEscan; assay type: binding; settings: 1000 nM
MEK5 = test: KINOMEscan; assay type: binding; settings: 1000 nM
IGF1R = test: KINOMEscan; assay type: binding; settings: 1000 nM
ABL2 = test: KINOMEscan; assay type: binding; settings: 1000 nM

## C=CC(=O)Nc1cc(Nc2cc(-c3cccc(NC(=O)c4cc5c(s4)CCCC5)c3C)cn(C)c2=O)ccc1N1CCN(CC)CC1 [CHMFL-BTK-85]
YANK1
  Percent Control: 100%
PRKCH
  Percent Control: 93%
SRPK3
  Percent Control: 83%
SGK3
  Percent Control: 100%
PIK3CA(I800L)
  Percent Control: 100%
EGFR
  kinase binding remaining (percent of control) at 1 µM: 58%
CDKL2
  Percent Control: 98%
PAK6
  Percent Control: 100%
FGFR3
  Percent Control: 82%
SNARK
  Percent Control: 100%
LTK
  Percent Control: 100%
BRAF(V600E)
  Percent Control: 100%
FGFR1
  Percent Control: 86%
SGK2
  Percent Control: 100%
DCAMKL3
  Percent Control: 100%
[1]; 100 mg/kg/day
  TGI: 65%
[1]; 150 mg/kg/day
  TGI: 79%
[1]; mouse, 100 mg/kg/day
  toxicity signs in REC-1 xenograft model: without obvious signs of toxicity
[2]
  Percent Control: 79%
[3]; 50 mg/kg/day p.o.
  median survival time: 42 days
[3]; 150 mg/kg/day p.o.
  median survival time: 63 days
[4]
  Percent Control: 99%
CSNK1G1
  Percent Control: 95%
DYRK1A
  Percent Control: 100%
CDK8
  Percent Control: 100%
EGFR(L747-T751del,Sins)
  Percent Control: 93%
CAMKK2
  Percent Control: 100%
[5]
  Percent Control: 100%
CDKL3
  Percent Control: 99%
EGFR(S752-I759del)
  Percent Control: 90%
ALK
  Percent Control: 86%
CAMK2A
  Percent Control: 82%
MST4
  Percent Control: 100%
TNK1
  Percent Control: 75%
PRKD3
  Percent Control: 100%
RIOK1
  Percent Control: 100%
CDK3
  Percent Control: 86%
ACVR1
  Percent Control: 99%
HUNK
  Percent Control: 100%
CSNK1A1L
  Percent Control: 100%
WNK2
  Percent Control: 87%
NEK3
  Percent Control: 80%
STK36
  Percent Control: 99%
TRPM6
  Percent Control: 100%
MRCKB
  Percent Control: 75%
TNNI3K
  Percent Control: 93%
PKN1
  Percent Control: 70%
DMPK
  Percent Control: 92%
HIPK1
  Percent Control: 75%
CSNK2A2
  Percent Control: 98%
CTK
  Percent Control: 99%
[6]
  Percent Control: 99%
MEK5
  Percent Control: 100%
IGF1R
  Percent Control: 76%
ABL2
  Percent Control: 88%
